What was measured:
Type in all cases: functional
Pseudomonas aeruginosa [1] = test: Antimicrobial activity against imipenem susceptible Pseudomonas aeruginosa assessed as resistant isolate by broth microdilution method
Proteus mirabilis [2] = test: Antimicrobial activity against ESBL producing Proteus mirabilis assessed as resistant isolate by broth microdilution method
Enterobacter cloacae = test: Antimicrobial activity against Enterobacter cloacae with nonderepressed AmpC beta-lactamsae assessed as resistant isolate by broth microdilution method
Proteus mirabilis [3] = test: Antimicrobial activity against Proteus mirabilis assessed as resistant isolate by broth microdilution method
Escherichia coli = test: Antimicrobial activity against ESBL producing Escherichia coli assessed as intermediate isolate by broth microdilution method in presence of Tazobactam
Klebsiella pneumoniae [4] = test: Antimicrobial activity against Non-ESBL Klebsiella pneumoniae assessed as resistant isolate by broth microdilution method in presence of Tazobactam
Proteus mirabilis [5] = test: Antimicrobial activity against Non-ESBL Proteus mirabilis by broth microdilution method in presence of Tazobactam
Citrobacter = test: Antimicrobial activity against Citrobacter with derepressed AmpC beta-lactamsae assessed as susceptible isolate by broth microdilution method in presence of Tazobactam
Klebsiella pneumoniae [6] = test: Antimicrobial activity against ESBL producing Klebsiella pneumoniae by broth microdilution method in presence of Tazobactam
Serratia marcescens [7] = test: Antimicrobial activity against ceftazidime non-susceptible Serratia marcescens assessed as resistant isolate by broth microdilution method in presence of Tazobactam
Serratia marcescens [8] = test: Antimicrobial activity against Ceftazidime susceptible Serratia marcescens assessed as resistant isolate by broth microdilution method in presence of tazobactam
Pseudomonas aeruginosa [9] = test: Antimicrobial activity against Ceftazidime non-susceptible Pseudomonas aeruginosa assessed as resistant isolate by broth microdilution method in presence of tazobactam
Serratia marcescens [10] = test: Antimicrobial activity against Ceftazidime non-susceptible Serratia marcescens assessed as intermediate isolate by broth microdilution method in presence of tazobactam
Pseudomonas aeruginosa [11] = test: Antimicrobial activity against ceftazidime susceptible Pseudomonas aeruginosa assessed as susceptible isolate by broth microdilution method in presence of Tazobactam

`CC(C)(O/N=C(\C(=O)N[C@@H]1C(=O)N2C(C(=O)[O-])=C(C[n+]3ccccc3)CS[C@H]12)c1csc(N)n1)C(=O)O` [CEFTAZIDIME] showed an Activity (Pseudomonas aeruginosa [1]) of 6.9%, an Activity (Proteus mirabilis [2]) of 0% and an Activity (Enterobacter cloacae) of 5.7%.

With `C[C@@H](O)[C@H]1C(=O)N2C(C(=O)O)=C(SCCNC=N)C[C@H]12` [IMIPENEM ANHYDROUS] the Activity (Proteus mirabilis [3]) was 0.2%.

Compound `CCN1CCN(C(=O)N[C@@H](C(=O)N[C@@H]2C(=O)N3[C@@H]2SC(C)(C)[C@@H]3C(=O)O)c2ccccc2)C(=O)C1=O` [PIPERACILLIN] has an Activity (Escherichia coli) of 16.7%, an Activity (Klebsiella pneumoniae [4]) of 1.7% and an MIC50 (Proteus mirabilis [5]) of 0.5 µg/mL. It also gave an MIC90 (Proteus mirabilis [5]) of 2 µg/mL, an Activity (Citrobacter) of 3.6% and an MIC50 (Klebsiella pneumoniae [6]) of over 128 µg/mL. The MIC90 (Klebsiella pneumoniae [6]) was over 128 µg/mL, the Activity (Serratia marcescens [7]) was 50% and the Activity (Serratia marcescens [8]) was 1.9%. For the same compound, the Activity (Pseudomonas aeruginosa [9]) was 82.7%, the Activity (Serratia marcescens [10]) was 30% and the Activity (Pseudomonas aeruginosa [11]) was 96.3%.

Source: ChEMBL document CHEMBL1275550, “In vitro activity of doripenem, a carbapenem for the treatment of challenging infections caused by gram-negative bacteria, against recent clinical isolates from the United States” (2008)
